Measurements from US20160291027A1, “METHODS FOR […] ABILITY OF A Z[…] COMPOUND TO TREAT CANCER” (Eisai R&D Management Co., Ltd., priority 2007, published 2016).

Tested on: cell lines which carried a BRAF V600E mutation
Assay: Cell growth assay (CellTiter-Glo or methylene blue) in solid cancer cell lines
Assay type: cell-based
Conditions: 96 hours, 0.3-10000 nM
Experimental: In a separate experiment, Compounds 091 and 106 were tested in solid cancer cell lines from different tissue types (shown in FIG. 3B for 21 cell lines for compound 091 and 19 cell lines for compound 106). All cell lines were introduced into 96-well plates and grown in the absence or continuous presence of 0.3-10000 nM of either compound 091 or compound 106 for 96 hours. Cell growth was assessed using a CellTiter-Glo® Luminescent Cell Viability Assay (Promega) or a methylene blue assay. IC50 values were determined as the concentration of a substance which inhibits cell growth by 50% compared to untreated cell populations.

In the case of `CNc1cc(O)c2c(c1)/C=C/C[C@H](O)[C@H](O)C(=O)/C=C\[C@@H](C)[C@H](C)OC2=O` [Compound 091], the “Sensitivity of BRAF V600E cell lines (concentration range)” value was “low-nM or sub-μM concentration range”.
